Data set [1] is described as follows: In vitro cytotoxicity assay (MTT cell viability) in HepG2 cells. The format is cell-based, human. As to conditions: human. Summed up: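 HepG2 seeded overnight, then 7-day compound exposure (30 μM–1.0 nM, half-log steps), 37 °C. MTT 3-4 h, DMSO solubilization, A492. % of vehicle → CC50, 4-PL fit.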
For data set [2], the system named is HBV replication in HepAD38 cells. The data set can be described thus: Anti-HBV replication assay in HepAD38 cells (QPCR of extracellular HBV DNA). It counts as cell-based, HBV (genotype D, serotype ayw). Conditions: Hepatitis B virus, 168 h, 7 days incubation, extracellular HBV DNA by QPCR, read-out: Anti-HBV EC50. Summed up: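 Tet-off HepAD38, 7-day compound exposure ([…], 1 log10 steps, DMSO vehicle), 37 °C. Extracellular HBV DNA by QPCR, copies/mL via standard curve, % inhibition vs vehicle, EC50 by 4-parameter regression. Entecavir as positive control.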

The structures appear in SMILES notation.

Usually CC50 stands for the concentration at which the toxic effect on the cells reaches its halfway point. Low readings indicate harm at low concentration, high ones better tolerance by the cells. By EC50 is commonly meant the concentration needed to bring the measured effect to its halfway point.

As for `Cc1noc([C@H](C)NC(=O)C(=O)c2c(Cl)c(C(=O)Nc3cnc(F)c(C)c3)c3n2CCCC3)n1` [Example 521, (S)-2-chloro-N-(6-fluoro-5-methylpyridin-3-yl)-3-(2-((1-(3-methyl-1,2,4-oxadiazol-5-yl)ethyl)amino)-2-oxoacetyl)-5,6,7,8-tetrahydroindolizine-1-carboxamide], the 50% cytotoxic concentration (CC50) at 7 days in data set [1] was over 30 µM. Further, the EC50 in data set [2] is over 1000 nM.
The corresponding values for `Cc1c(C(=O)NC2CCC(F)(F)C2)c2n(c1C(=O)C(=O)NC(C)(C)CO)CCCC2` (centres unmarked) [Example 752, N-(3,3-difluorocyclopentyl)-3-(2-((1-hydroxy-2-methylpropan-2-yl)amino)-2-oxoacetyl)-2-methyl-5,6,7,8-tetrahydroindolizine-1-carboxamide] are over 30 µM and 50 to 499 nM.
In turn, `Cc1cnc(NC(=O)c2c(C)c(C(=O)C(=O)NC3(CO)CCC3)n3c2CCCC3)s1` [Example 750] yielded a 50% cytotoxic concentration (CC50) at 7 days in data set [1] of over 30 µM. In data set [2], the EC50 was in the range of 50 to 499 nM.
As for `Cc1c(C(=O)NC2(C)CCCC2)c2n(c1C(=O)C(=O)NC1(CO)CCC1)CCCC2` [Example 745, 3-(2-((1-(hydroxymethyl)cyclobutyl)amino)-2-oxoacetyl)-2-methyl-N-(1-methylcyclopentyl)-5,6,7,8-tetrahdyroindolizine-1-carboxamide], in data set [1], the CC50 at 7 days is over 30 µM. In addition, in data set [2], the EC50 lay within 50 to 499 nM.
Turning to `Cc1c(C(=O)Nc2ccc(F)nc2)c(C)n(C)c1C(=O)C(=O)NC1(C(N)=O)CCCCC1` [Example 93, 5-(2-((1-carbamoylcyclohexyl)amino)-2-oxoacetyl)-N-(6-fluoropyridin-3-yl)-1,2,4-trimethyl-1H-pyrrole-3-carboxamide], the CC50 at 7 days in data set [1] was over 30 µM. The half-maximal effective concentration (EC50) in data set [2] was in the range of 50 to 499 nM.
In turn, `Cc1c(C(=O)Nc2ccc(F)cc2)c(C)n(C)c1C(=O)C(=O)N[C@H](C)C(F)(F)F` [Example 725, (R)-N-(4-fluorophenyl)-1,2,4-trimethyl-5-(2-oxo-2-((1,1,1-trifluoropropan-2-yl)amino)acetyl)-1H-pyrrole-3-carboxamide] yielded a CC50 at 7 days in data set [1] of over 30 µM. Further, the EC50 in data set [2] was under 50 nM.
The corresponding values for `Cc1cc(NC(=O)c2c(C)c(C(=O)C(=O)N[C@@H](C(=O)O)C(C)C)n(C)c2C)ccc1F` [Example 101, (2-(4-((4-fluoro-3-methylphenyl)carbamoyl)-1,3,5-trimethyl-1H-pyrrol-2-yl)-2-oxoacetyl)-D-valine] are 5 to 30 µM and over 1000 nM.
In turn, `Cc1c(C(=O)Nc2ccc(F)c(F)c2)c2n(c1C(=O)C(=O)NCC(C)(C)CO)CCCC2` [Example 461, N-(3,4-difluorophenyl)-3-(2-((3-hydroxy-2,2-dimethylpropyl)amino)-2-oxoacetyl)-2-methyl-5,6,7,8-tetrahydroindolizine-1-carboxamide] yielded a CC50 at 7 days in data set [1] of 5 to 30 µM. Further, the EC50 in data set [2] is under 50 nM.
The corresponding values for `Cc1cc(NC(=O)c2cc(C(=O)C(=O)NC[C@H](O)CO)n3c2CCCC3)ccc1F` [Example 416, (S)-3-(2-((2,3-dihydroxypropyl)amino)-2-oxoacetyl)-N-(4-fluoro-3-methylphenyl)-5,6,7,8-tetrahydroindolizine-1-carboxamide] are over 30 µM and over 1000 nM.
The like results for `Cc1csc(NC(=O)C(=O)c2c(C)c(C(=O)Nc3cnc(F)c(C)c3)c(C)n2C)n1` [Example 342, N-(6-fluoro-5-methylpyridin-3-yl)-1,2,4-trimethyl-5-(2-((4-methylthiazol-2-yl)amino)-2-oxoacetyl)-1H-pyrrole-3-carboxamide] were, in that order, over 30 µM and 500 to 1000 nM.
As for `CC[C@@H](CO)NC(=O)C(=O)c1c(C)c(C(=O)Nc2ccc(F)c(C)c2)c(C)n1C` [Example 139, (S)-N-(4-fluoro-3-methylphenyl)-5-(2-((1-hydroxybutan-2-yl)amino)-2-oxoacetyl)-1,2,4-trimethyl-1H-pyrrole-3-carboxamide], the CC50 at 7 days in data set [1] is over 30 µM. Also, the EC50 in data set [2] was under 50 nM.
The corresponding values for `Cc1cc(NC(=O)c2c(C)c(C(=O)C(=O)N[C@@H](C(=O)O)[C@@H](C)O)n(C)c2C)ccc1F` [Example 52, (2-(4-((4-fluoro-3-methylphenyl)carbamoyl)-1,3,5-trimethyl-1H-pyrrol-2-yl)-2-oxoacetyl)-D-allothreonine] are over 30 µM and over 1000 nM.
`Cc1cc(NC(=O)c2c(C)c(C(=O)C(=O)N[C@@H]3CCCC[C@H]3O)n(C)c2C)cnc1F` [Example 162, N-(6-fluoro-5-methylpyridin-3-yl)-5-(2-(((1R,2R)-2-hydroxycyclohexyl)amino)-2-oxoacetyl)-1,2,4-trimethyl-1H-pyrrole-3-carboxamide] gave a CC50 at 7 days in data set [1] of over 30 µM. Besides, the EC50 in data set [2] is 50 to 499 nM.
Molecule `Cc1cc(NC(=O)c2c(C)c(C(=O)C(=O)NC3(C)CCN(C(=O)Nc4ccc(F)c(F)c4)CC3)n(C)c2C)ccc1F` [Example 707, N-(3,4-difluorophenyl)-4-(2-(4-((4-fluoro-3-methylphenyl)carbamoyl)-1,3,5-trimethyl-1H-pyrrol-2-yl)-2-oxoacetamido)-4-methylpiperidine-1-carboxamide] showed a CC50 at 7 days in data set [1] of 0.5 to 4.99 µM. Moreover, the concentration giving a half-maximal response (EC50) in data set [2] is under 50 nM.
The like results for `Cc1cc(NC(=O)c2c(C)c(C(=O)C(=O)N[C@H]3CC[C@@H](O)C3)n(C)c2C)ccc1F` [Example 245, N-(4-fluoro-3-methylphenyl)-5-(2-(((1S,3R)-3-hydroxycyclopentyl)amino)-2-oxoacetyl)-1,2,4-trimethyl-1H-pyrrole-3-carboxamide] were, in that order, over 30 µM and under 50 nM.
The like results for `Cc1cc(NC(=O)c2c(C)c(C(=O)C(=O)N[C@@H](C(=O)NCC(C)(C)O)C(C)(C)C)n(C)c2C)ccc1F` [Example 87, (R)-N-(4-fluoro-3-methylphenyl)-5-(2-((1-((2-hydroxy-2-methylpropyl)amino)-3,3-dimethyl-1-oxobutan-2-yl)amino)-2-oxoacetyl)-1,2,4-trimethyl-1H-pyrrole-3-carboxamide] were, in that order, over 30 µM and under 50 nM.
The like results for `Cc1c(C(=O)Nc2ccc(F)c(F)c2)c(C)n(C)c1C(=O)C(=O)Nc1ccc(F)c(F)c1` [Example 293, N-(3,4-difluorophenyl)-5-(2-((3,4-difluorophenyl)amino)-2-oxoacetyl)-1,2,4-trimethyl-1H-pyrrole-3-carboxamide] were, in that order, 5 to 30 µM and under 50 nM.
`Cc1cc(NC(=O)c2c(C)c(C(=O)C(=O)NC(C)(C)CN3CCOCC3)n(C)c2C)ccc1F` [Example 291, N-(4-fluoro-3-methylphenyl)-1,2,4-trimethyl-5-(2-((2-methyl-1-morpholinopropan-2-yl)amino)-2-oxoacetyl)-1H-pyrrole-3-carboxamide] yielded a CC50 at 7 days in data set [1] of over 30 µM. Besides, the EC50 in data set [2] is under 50 nM.
The like results for `O=C(N[C@H]1COC[C@@H]1O)C(=O)c1c(Cl)c(C(=O)Nc2ccc(F)c(F)c2)c2n1CCC2` [Example 570, 6-chloro-N-(3,4-difluorophenyl)-5-(22-(((3S,4R)-4-hydroxytetrahydrofuran-3-yl)amino)-2-oxoacetyl)-2,3-dihydro-1H-pyrrolizine-7-carboxamide] were, in that order, over 30 µM and under 50 nM.
`Cc1c(C(=O)Nc2cccc(C(F)F)c2)c(C)n(C)c1C(=O)C(=O)N[C@@H]1CCC[C@@H](O)C1` [Example 704, N-(3-(difluoromethyl)phenyl)-5-(2-(((1R,3R)-3-hydroxycyclohexyl)amino)-2-oxoacetyl)-1,2,4-trimethyl-1H-pyrrole-3-carboxamide]: in data set [1], the CC50 at 7 days was over 30 µM. Moreover, in data set [2], the EC50 is under 50 nM.
The like results for `Cc1c(C(=O)Nc2ccc(F)c(F)c2)c2n(c1C(=O)C(=O)NC1(C)CCNCC1)CCCC2` [Example 742] were, in that order, over 30 µM and 50 to 499 nM.
With `Cc1cc(NC(=O)c2c(C)c(C(=O)C(=O)NC3CCN(C4CCOCC4)CC3)n(C)c2C)ccc1F` [Example 653, N-(4-fluoro-3-methylphenyl)-1,2,4-trimethyl-5-(2-oxo-2-((1-(tetrahydro-2H-pyran-4-yl)piperidin-4-yl)mino)acetyl)-1H-pyrrole-3-carboxamide], the CC50 at 7 days in data set [1] was over 30 µM. For the same molecule, the EC50 in data set [2] fell in the range of 50 to 499 nM.
The corresponding values for `CNC(=O)[C@@H](NC(=O)C(=O)c1c(C)c(C(=O)Nc2ccc(F)c(C)c2)c(C)n1C)C(C)C` [Example 108, (S)-N-(4-fluoro-3-methylphenyl)-1,2,4-trimethyl-5-(2-((3-methyl-1-(methylamino)-1-oxobutan-2-yl)amino)-2-oxoacetyl)-1H-pyrrole-3-carboxamide] are 0.5 to 4.99 µM and under 50 nM.
`Cc1cc(NC(=O)c2c(C)c(C(=O)C(=O)NC3CC4CCC(C3)S4(=O)=O)n(C)c2C)ccc1F` (centres unmarked) [Example 624, 5-(2-((8,8-dioxido-8-thiabicyclo[3.2.1]ctan-3-yl)amino)-2-oxoacetyl)-N-(4-fluoro-3-methylphenyl)-1,2,4-trimethyl-1H-pyrrole-3-carboxamide] had a half-maximal cytotoxic concentration (CC50) at 7 days in data set [1] of over 30 µM. Further, the EC50 in data set [2] was under 50 nM.
The molecule `Cc1cc(NC(=O)c2c(Cl)c(C(=O)C(=O)NC(C)(C)C)n(C)c2C)ccc1F` [Example 363, 5-(2-(tert-butylamino)-2-oxoacetyl)-4-chloro-N-(4-fluoro-3-methylphenyl)-1,2-dimethyl-1H-pyrrole-3-carboxamide] had a CC50 at 7 days in data set [1] of over 30 µM. Moreover, the EC50 in data set [2] is under 50 nM.

The values above are taken from US20190375708A1 (VenatoRx Pharmaceuticals, Inc., priority 2018, published 2019).
